Data reported in ChEMBL document CHEMBL6103592, “Discovery of novel thiazole-pleuromutilin derivatives with potent antibacterial activity” (Eur J Med Chem, 2025).
In brackets after ≈: the same amount, converted by molar mass.

Legend:
Assay type in all cases: functional
Staphylococcus aureus [1] = assay: Antibacterial activity against methicillin-resistant Staphylococcus aureus ATCC 43300 assessed as inhibition of visible bacterial growth incubated for 24 hrs by CLSI based broth microdilution method
Staphylococcus aureus [2] = assay: Antibacterial activity against Staphylococcus aureus ATCC 25923 assessed as inhibition of visible bacterial growth incubated for 24 hrs by CLSI based broth microdilution method
Enterococcus faecalis = assay: Antibacterial activity against Enterococcus faecalis assessed as inhibition of visible bacterial growth incubated for 24 hrs by CLSI based broth microdilution method
Escherichia coli = assay: Antibacterial activity against Escherichia coli ATCC 25922 assessed as inhibition of visible bacterial growth incubated for 24 hrs by CLSI based broth microdilution method
Streptococcus agalactiae = assay: Antibacterial activity against Streptococcus agalactiae assessed as inhibition of visible bacterial growth incubated for 24 hrs by CLSI based broth microdilution method
Mycoplasma = assay: Antibacterial activity against Mycoplasma F3 assessed as inhibition of visible bacterial growth incubated for 24 hrs by CLSI based broth microdilution method

SMILES | MIC (Staphylococcus aureus [1]) | MIC (Staphylococcus aureus [2]) | MIC (Enterococcus faecalis) | MIC (Escherichia coli) | MIC (Streptococcus agalactiae) | MIC (Mycoplasma)
C=C[C@]1(C)C[C@@H](OC(=O)CSc2nc(OC(=O)CCCCCCC)cs2)[C@]2(C)[C@H](C)CC[C@]3(CCC(=O)[C@H]32)[C@@H](C)[C@@H]1O | 2 mg/L (≈ 3.23 µM) | 2 mg/L (≈ 3.23 µM) | > 32 mg/L | > 32 mg/L | 0.125 mg/L (≈ 0.202 µM) | 0.5 mg/L (≈ 0.807 µM)
C=C[C@]1(C)C[C@@H](OC(=O)CSc2nc(OC(=O)c3c(Cl)cc(Cl)cc3Cl)cs2)[C@]2(C)[C@H](C)CC[C@]3(CCC(=O)[C@H]32)[C@@H](C)[C@@H]1O | 16 mg/L (≈ 22.8 µM) | 16 mg/L (≈ 22.8 µM) | > 32 mg/L | > 32 mg/L | 0.5 mg/L (≈ 0.713 µM) | 1 mg/L (≈ 1.43 µM)
C=C[C@]1(C)C[C@@H](OC(=O)CSc2nc(OC(=O)c3ccccc3Br)cs2)[C@]2(C)[C@H](C)CC[C@]3(CCC(=O)[C@H]32)[C@@H](C)[C@@H]1O | 0.5 mg/L (≈ 0.739 µM) | 2 mg/L (≈ 2.96 µM) | > 32 mg/L | > 32 mg/L | 0.063 mg/L (≈ 0.0931 µM) | 0.5 mg/L (≈ 0.739 µM)
C=C[C@]1(C)C[C@@H](OC(=O)CSc2nc(OC(=O)c3cccc(Cl)c3)cs2)[C@]2(C)[C@H](C)CC[C@]3(CCC(=O)[C@H]32)[C@@H](C)[C@@H]1O | 1 mg/L (≈ 1.58 µM) | 0.25 mg/L (≈ 0.395 µM) | > 32 mg/L | > 32 mg/L | 0.063 mg/L (≈ 0.0996 µM) | 0.25 mg/L (≈ 0.395 µM)
C=C[C@]1(C)C[C@@H](OC(=O)CSc2nc(OC(=O)C(C)(C)CC)cs2)[C@]2(C)[C@H](C)CC[C@]3(CCC(=O)[C@H]32)[C@@H](C)[C@@H]1O | 0.5 mg/L (≈ 0.845 µM) | 0.25 mg/L (≈ 0.422 µM) | > 32 mg/L | > 32 mg/L | 0.063 mg/L (≈ 0.106 µM) | 0.125 mg/L (≈ 0.211 µM)
C=C[C@]1(C)C[C@@H](OC(=O)CSc2nc(OC(=O)C3CCCCC3)cs2)[C@]2(C)[C@H](C)CC[C@]3(CCC(=O)[C@H]32)[C@@H](C)[C@@H]1O | 1 mg/L (≈ 1.66 µM) | 1 mg/L (≈ 1.66 µM) | > 32 mg/L | > 32 mg/L | 0.125 mg/L (≈ 0.207 µM) | 0.5 mg/L (≈ 0.828 µM)
C=C[C@]1(C)C[C@@H](OC(=O)CSc2nc(OC(=O)c3ccccc3Cl)cs2)[C@]2(C)[C@H](C)CC[C@]3(CCC(=O)[C@H]32)[C@@H](C)[C@@H]1O | 0.5 mg/L (≈ 0.791 µM) | 1 mg/L (≈ 1.58 µM) | > 32 mg/L | > 32 mg/L | 0.125 mg/L (≈ 0.198 µM) | 0.25 mg/L (≈ 0.395 µM)
C=C[C@]1(C)C[C@@H](OC(=O)CSc2nc(OC(=O)C3CC3)cs2)[C@]2(C)[C@H](C)CC[C@]3(CCC(=O)[C@H]32)[C@@H](C)[C@@H]1O | 0.5 mg/L (≈ 0.89 µM) | 1 mg/L (≈ 1.78 µM) | > 32 mg/L | > 32 mg/L | 0.063 mg/L (≈ 0.112 µM) | 0.25 mg/L (≈ 0.445 µM)
C=C[C@]1(C)C[C@@H](OC(=O)CSc2nc(OC(=O)c3cccc(OC)c3)cs2)[C@]2(C)[C@H](C)CC[C@]3(CCC(=O)[C@H]32)[C@@H](C)[C@@H]1O | 1 mg/L (≈ 1.59 µM) | 1 mg/L (≈ 1.59 µM) | > 32 mg/L | > 32 mg/L | 0.063 mg/L (≈ 0.1 µM) | 0.25 mg/L (≈ 0.398 µM)
C=C[C@]1(C)C[C@@H](OC(=O)CSc2nc(OC(=O)c3ccc(Cl)cc3)cs2)[C@]2(C)[C@H](C)CC[C@]3(CCC(=O)[C@H]32)[C@@H](C)[C@@H]1O | 0.5 mg/L (≈ 0.791 µM) | 0.5 mg/L (≈ 0.791 µM) | > 32 mg/L | > 32 mg/L | 0.063 mg/L (≈ 0.0996 µM) | 0.25 mg/L (≈ 0.395 µM)
C=C[C@]1(C)C[C@@H](OC(=O)CSc2nc(OC(=O)c3ccccc3C)cs2)[C@]2(C)[C@H](C)CC[C@]3(CCC(=O)[C@H]32)[C@@H](C)[C@@H]1O | 1 mg/L (≈ 1.63 µM) | 2 mg/L (≈ 3.27 µM) | > 32 mg/L | > 32 mg/L | 0.063 mg/L (≈ 0.103 µM) | 1 mg/L (≈ 1.63 µM)
C=C[C@]1(C)C[C@@H](OC(=O)CSc2nc(OC(=O)c3ccc(F)cc3)cs2)[C@]2(C)[C@H](C)CC[C@]3(CCC(=O)[C@H]32)[C@@H](C)[C@@H]1O | 0.5 mg/L (≈ 0.812 µM) | 0.5 mg/L (≈ 0.812 µM) | > 32 mg/L | > 32 mg/L | 0.125 mg/L (≈ 0.203 µM) | 0.25 mg/L (≈ 0.406 µM)
C=C[C@]1(C)C[C@@H](OC(=O)CSc2nc(OC(=O)c3cccc(C)c3)cs2)[C@]2(C)[C@H](C)CC[C@]3(CCC(=O)[C@H]32)[C@@H](C)[C@@H]1O | 0.5 mg/L (≈ 0.817 µM) | 0.5 mg/L (≈ 0.817 µM) | > 32 mg/L | > 32 mg/L | 0.063 mg/L (≈ 0.103 µM) | 0.5 mg/L (≈ 0.817 µM)
C=C[C@]1(C)C[C@@H](OC(=O)CSc2nc(OC(=O)C3CCC3)cs2)[C@]2(C)[C@H](C)CC[C@]3(CCC(=O)[C@H]32)[C@@H](C)[C@@H]1O | 0.5 mg/L (≈ 0.868 µM) | 1 mg/L (≈ 1.74 µM) | > 32 mg/L | > 32 mg/L | 0.063 mg/L (≈ 0.109 µM) | 0.5 mg/L (≈ 0.868 µM)
C=C[C@]1(C)C[C@@H](OC(=O)CSc2nc(OC(=O)c3ccccc3)cs2)[C@]2(C)[C@H](C)CC[C@]3(CCC(=O)[C@H]32)[C@@H](C)[C@@H]1O | 1 mg/L (≈ 1.67 µM) | 0.5 mg/L (≈ 0.836 µM) | > 32 mg/L | > 32 mg/L | 0.063 mg/L (≈ 0.105 µM) | 0.25 mg/L (≈ 0.418 µM)
C=C[C@]1(C)C[C@@H](OC(=O)CSc2nc(OC(=O)CC(C)(C)C)cs2)[C@]2(C)[C@H](C)CC[C@]3(CCC(=O)[C@H]32)[C@@H](C)[C@@H]1O | 0.5 mg/L (≈ 0.845 µM) | 0.5 mg/L (≈ 0.845 µM) | > 32 mg/L | > 32 mg/L | 0.125 mg/L (≈ 0.211 µM) | 0.25 mg/L (≈ 0.422 µM)
C=C[C@]1(C)C[C@@H](OC(=O)CSc2nc(OC(=O)CC(C)C)cs2)[C@]2(C)[C@H](C)CC[C@]3(CCC(=O)[C@H]32)[C@@H](C)[C@@H]1O | 0.5 mg/L (≈ 0.865 µM) | 1 mg/L (≈ 1.73 µM) | > 32 mg/L | > 32 mg/L | 0.125 mg/L (≈ 0.216 µM) | 0.125 mg/L (≈ 0.216 µM)
C=C[C@]1(C)C[C@@H](OC(=O)CSc2nc(OC(=O)C(CC)CCCC)cs2)[C@]2(C)[C@H](C)CC[C@]3(CCC(=O)[C@H]32)[C@@H](C)[C@@H]1O (some centres undefined) | 0.5 mg/L (≈ 0.807 µM) | 2 mg/L (≈ 3.23 µM) | > 32 mg/L | > 32 mg/L | 0.25 mg/L (≈ 0.403 µM) | 0.5 mg/L (≈ 0.807 µM)
C=C[C@]1(C)C[C@@H](OC(=O)CSc2nc(OC(=O)c3ccccc3F)cs2)[C@]2(C)[C@H](C)CC[C@]3(CCC(=O)[C@H]32)[C@@H](C)[C@@H]1O | 0.5 mg/L (≈ 0.812 µM) | 0.5 mg/L (≈ 0.812 µM) | > 32 mg/L | > 32 mg/L | 0.125 mg/L (≈ 0.203 µM) | 0.25 mg/L (≈ 0.406 µM)
C=C[C@]1(C)C[C@@H](OC(=O)CSc2nc(OC(=O)c3cccs3)cs2)[C@]2(C)[C@H](C)CC[C@]3(CCC(=O)[C@H]32)[C@@H](C)[C@@H]1O | 1 mg/L (≈ 1.66 µM) | 0.5 mg/L (≈ 0.828 µM) | > 32 mg/L | > 32 mg/L | 0.25 mg/L (≈ 0.414 µM) | 0.25 mg/L (≈ 0.414 µM)
C=C[C@]1(C)C[C@@H](OC(=O)CSc2nc(OC(=O)CCCCC)cs2)[C@]2(C)[C@H](C)CC[C@]3(CCC(=O)[C@H]32)[C@@H](C)[C@@H]1O | 1 mg/L (≈ 1.69 µM) | 1 mg/L (≈ 1.69 µM) | > 32 mg/L | > 32 mg/L | 0.125 mg/L (≈ 0.211 µM) | 0.5 mg/L (≈ 0.845 µM)
C=C[C@]1(C)C[C@@H](OC(=O)CSc2nc(OC(=O)c3ccc(Cl)cc3Cl)cs2)[C@]2(C)[C@H](C)CC[C@]3(CCC(=O)[C@H]32)[C@@H](C)[C@@H]1O | 0.5 mg/L (≈ 0.75 µM) | 2 mg/L (≈ 3 µM) | > 32 mg/L | > 32 mg/L | 0.063 mg/L (≈ 0.0945 µM) | 0.5 mg/L (≈ 0.75 µM)
C=C[C@]1(C)C[C@@H](OC(=O)CSc2nc(OC(=O)CCC)cs2)[C@]2(C)[C@H](C)CC[C@]3(CCC(=O)[C@H]32)[C@@H](C)[C@@H]1O | 1 mg/L (≈ 1.77 µM) | 1 mg/L (≈ 1.77 µM) | > 32 mg/L | > 32 mg/L | 0.125 mg/L (≈ 0.222 µM) | 0.25 mg/L (≈ 0.443 µM)
CCC[C@@H]1C[C@@H](C(=O)N[C@@H]([C@H]2O[C@H](SC)[C@H](O)[C@@H](O)[C@H]2O)[C@H](C)Cl)N(C)C1 [CLINDAMYCIN] | > 32 mg/L | > 32 mg/L | 16 mg/L (≈ 37.6 µM) | 32 mg/L (≈ 75.3 µM) | > 32 mg/L | 1 mg/L (≈ 2.35 µM)
